Here are results for 24 molecules from patent US10329302B2, “Bicyclic-fused heteroaryl or aryl compounds” (Pfizer Inc., priority 2014, dated 2019).

Usually IC50 stands for the concentration that inhibits the measured activity by half.

Sequence of human IRAK4 FL (Full Length) (Q9NWZ3 whole entry): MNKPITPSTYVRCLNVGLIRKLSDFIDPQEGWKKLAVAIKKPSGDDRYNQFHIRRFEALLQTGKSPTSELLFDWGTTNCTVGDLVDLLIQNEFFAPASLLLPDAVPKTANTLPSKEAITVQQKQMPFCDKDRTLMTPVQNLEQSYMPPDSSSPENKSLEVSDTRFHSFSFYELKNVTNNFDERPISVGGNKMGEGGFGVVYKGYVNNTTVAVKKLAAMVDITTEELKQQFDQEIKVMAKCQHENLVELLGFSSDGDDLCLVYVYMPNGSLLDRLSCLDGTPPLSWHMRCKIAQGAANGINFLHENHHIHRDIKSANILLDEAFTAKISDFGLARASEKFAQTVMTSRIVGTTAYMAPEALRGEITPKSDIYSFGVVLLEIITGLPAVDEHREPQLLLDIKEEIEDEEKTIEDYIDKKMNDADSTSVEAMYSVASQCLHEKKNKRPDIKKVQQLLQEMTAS

The first test addresses human IRAK4 FL (Full Length) (Homo sapiens (Human), UniProt Q9NWZ3). Nature of the test: IRAK4 Enzymatic DELFIA Assay, Protocol A. The test is classed as biochemical.
Conditions: not given
Molecule `CC(C)Oc1cc2c(OC[C@@H]3CCC(=O)N3)ncc(-c3cccc(=O)[nH]3)c2cc1C(N)=O` [Example 378, 4-(6-oxo-1,6-dihydropyridin-2-yl)-1-{[(2S)-5-oxopyrrolidin-2-yl]methoxy}-7-(propan-2-yloxy)isoquinoline-6-carboxamide] returned an IC50 of 59 nM.

Still in this test, the particulars now being: human IRAK4 FL, 0.6 mM ATP (KM); read-out: IRAK4 DELFIA Protocol A IC50.
As to `CC(C)Oc1cc2c(OC[C@H]3NC(=O)C[C@@H]3CO)nccc2cc1C(N)=O` [Example 212, 1-{[(2S,3S)-3-(hydroxymethyl)-5-oxopyrrolidin-2-yl]methoxy}-7-(propan-2-yloxy)isoquinoline-6-carboxamide], the half-inhibitory concentration (IC50) was 150 nM.

As for `CC(C)Oc1cc2c(OC[C@H]3NC(=O)[C@@H]4CN(C)C[C@H]34)nccc2cc1C(N)=O` [Example 213, 1-{[(1S,3aS,6aR)-5-methyl-3-oxooctahydropyrrolo[3,4-c]pyrrol-1-yl]methoxy}-7-(propan-2-yloxy)isoquinoline-6-carboxamide], the concentration for half-maximal inhibition (IC50) amounted to 1420 nM.

Consider `COc1cc2c(OC[C@H]3NC(=O)C[C@@H]3CO)nccc2cc1C(N)=O` [Example 214, 1-{[(2S,3S)-3-(hydroxymethyl)-5-oxopyrrolidin-2-yl]methoxy}-7-methoxyisoquinoline-6-carboxamide], for which the IC50 is 215 nM.

For `COc1cc2c(OC[C@H]3NC(=O)CC3(C)C)nccc2cc1C(N)=O` [Example 221, 1-{[(2S)-3,3-dimethyl-5-oxopyrrolidin-2-yl]methoxy}-7-methoxyisoquinoline-6-carboxamide], the half-inhibitory concentration (IC50) amounted to 54 nM.

As to `COc1cc2c(OC[C@@H]3C[C@H](CC#N)C(=O)N3)nccc2cc1C(N)=O` [Example 224, 1-{[(2S,4R)-4-(cyanomethyl)-5-oxopyrrolidin-2-yl]methoxy}-7-methoxyisoquinoline-6-carboxamide], the IC50 stood at 1170 nM.

With `CC(C)Oc1cc2c(OC[C@H]3NC(=O)[C@@H]4CNC[C@H]34)nccc2cc1C(N)=O` [Example 226, 1-{[(1S,3aS,6aR)-3-oxooctahydropyrrolo[3,4-c]pyrrol-1-yl]methoxy}-7-(propan-2-yloxy)isoquinoline-6-carboxamide], the IC50 was 222 nM.

Regarding `COc1cc2c(OC[C@H]3CN(C)C(=O)O3)nccc2cc1C(N)=O` [Example 239, 7-methoxy-1-{[(5R)-3-methyl-2-oxo-1,3-oxazolidin-5-yl]methoxy}isoquinoline-6-carboxamide], the IC50 turned out to be 1180 nM.

Consider `COc1cc2c(OC[C@H]3NC(=O)[C@@H](C)[C@@H]3CF)nccc2cc1C(N)=O` [Example 254, 1-{[(2S,3S,4S)-3-(fluoromethyl)-4-methyl-5-oxopyrrolidin-2-yl]methoxy}-7-methoxyisoquinoline-6-carboxamide], for which the IC50 worked out at 2950 nM.

On to `COc1cc2c(OC[C@@H]3C[C@](F)(CF)C(=O)N3)nccc2cc1C(N)=O` [Example 261, 1-{[(2S,4R)-4-fluoro-4-(fluoromethyl)-5-oxopyrrolidin-2-yl]methoxy}-7-methoxyisoquinoline-6-carboxamide], for which the IC50 was 671 nM.

On to `COc1cc2c(OCC3(C)COCC(=O)N3)nccc2cc1C(N)=O` (stereo not drawn) [Example 265, 7-methoxy-1-[(3-methyl-5-oxomorpholin-3-yl)methoxy]isoquinoline-6-carboxamide], for which the IC50 amounted to 1540 nM.

Consider `COc1cc2c(OC[C@@H]3C[C@H](CC(F)(F)F)C(=O)N3)nccc2cc1C(N)=O` [Example 270, 7-methoxy-1-{[(2S,4R)-5-oxo-4-(2,2,2-trifluoroethyl)pyrrolidin-2-yl]methoxy}isoquinoline-6-carboxamide], for which the IC50 worked out at 290 nM.

In the case of `CCOc1cc2c(OC[C@H]3NC(=O)[C@@H]4C[C@H]34)ccnc2cc1C(N)=O` [Example 280, 6-ethoxy-4-{[(1S,2S,5R)-4-oxo-3-azabicyclo[3.1.0]hex-2-yl]methoxy}quinoline-7-carboxamide], the IC50 amounted to 3790 nM.

In the case of `COc1cc2c(OC[C@H]3NC(=O)[C@@H]4[C@@H](C)[C@@H]43)c(Cl)cnc2cc1C(N)=O` [Example 321, 3-chloro-6-methoxy-4-{[(1S,2S,5R)-6-methyl-4-oxo-3-azabicyclo[3.1.0]hex-2-yl]methoxy}quinoline-7-carboxamide], the IC50 worked out at 4190 nM.

Turning to `COc1cc2c(OC[C@H]3NC(=O)[C@@H]4[C@H](CO)[C@@H]43)nccc2cc1C(N)=O` [Example 328, 1-{[(1S,2S,5S)-6-(hydroxymethyl)-4-oxo-3-azabicyclo[3.1.0]hex-2-yl]methoxy}-7-methoxyisoquinoline-6-carboxamide], the 50% inhibitory concentration (IC50) was 93 nM.

As to `COc1cc2c(O[C@@H](C)[C@@H]3CCC(=O)N3)nccc2cc1C(N)=O` [Example 354, 7-methoxy-1-{(1S)-1-[(2S)-5-oxopyrrolidin-2-yl]ethoxy}isoquinoline-6-carboxamide], the concentration for half-maximal inhibition (IC50) is 2890 nM.

With `COc1cc2c(OC[C@H]3NC(=O)[C@H](F)[C@H]3CF)nccc2cc1C(N)=O` [Example 375, 1-{[(2S,3R,4R)-4-fluoro-3-(fluoromethyl)-5-oxopyrrolidin-2-yl]methoxy}-7-methoxyisoquinoline-6-carboxamide], the half-inhibitory concentration (IC50) worked out at 0.3 nM.

`Cc1ccnc(-c2cnc(OC[C@@H]3CCC(=O)N3)c3cc(OC(C)C)c(C(N)=O)cc23)n1` [Example 376, 4-(4-methylpyrimidin-2-yl)-1-{[(2S)-5-oxopyrrolidin-2-yl]methoxy}-7-(propan-2-yloxy)isoquinoline-6-carboxamide]: the IC50 worked out at 740 nM.

Turning to `CC(C)Oc1cc2c(OC[C@@H]3CCC(=O)N3)ncc(-c3ncc(Cl)cn3)c2cc1C(N)=O` [Example 377, 4-(5-chloropyrimidin-2-yl)-1-{[(2S)-5-oxopyrrolidin-2-yl]methoxy}-7-(propan-2-yloxy)isoquinoline-6-carboxamide], the IC50 was 72 nM.

As for `Cc1nccc(-c2cnc(OC[C@@H]3CCC(=O)N3)c3cc(OC(C)C)c(C(N)=O)cc23)n1` [Example 379, 4-(2-methylpyrimidin-4-yl)-1-{[(2S)-5-oxopyrrolidin-2-yl]methoxy}-7-(propan-2-yloxy)isoquinoline-6-carboxamide], the IC50 amounted to 503 nM.

A further test has as its system R848-induced TNFα production by human peripheral blood mononuclear cells (PBMCs). Put plainly: R848 Induced TNFα in Human PBMC Assay. Format: cell-based. To be noted: Homo sapiens, PBMC, 3 h, read-out: R848-induced TNFa PBMC IC50 (nM).
Text: This protocol is for R848-induced TNFα production by human peripheral blood mononuclear cells (PBMCs). […] The assay is used to assess cell-based potency of small molecule inhibitors of IRAK4 in the absence of serum.
The PBMCs in the interphase layer were collected and washed with PBS via centrifugation multiple times until the supernatant is clear. The purified PBMCs were re-suspended in RPMI (Roswell Park Memorial Institute) media (Sigma-Aldrich).
For the assay, a compound dilution plate containing a top concentration of 4 mM compound in DMSO was serially diluted 4-fold for 11 times. 250 nL of the compound dilution plate was spotted into a 384-well, flat bottom with lid, TC-treated, black with clear bottom, sterile, polystyrene plate (Corning Life Sciences).
10 μL of anti-TNFα antibody labeled with MSD SULFO-TAG at 50 μg/mL was added to each well and allowed to incubate overnight at 4° C.
Turning to `CCC1C[C@@H](COc2nccc3cc(C(N)=O)c(OC(C)C)cc23)NC1=O` (single isomer, unassigned) [Example 113], the IC50 was determined as 53 nM.

For the molecule `COc1cc2c(OC[C@H]3NC(=O)[C@H]4C3[C@H]4C)nccc2cc1C(N)=O` (stereo in doubt) [Example 285, 7-methoxy-1-(((1R,2S,5R,6R)-6-methyl-4-oxo-3-azabicyclo[3.1.0]hexan-2-yl)methoxy)isoquinoline-6-carboxamide], the half-maximal inhibitory concentration (IC50) stood at 1060 nM.

`CC[C@@H]1C2[C@@H](COc3nccc4cc(C(N)=O)c(OC)cc34)NC(=O)[C@@H]21` (stereo in doubt) [Example 301, 1-(((1R,2S,5R,6R)-6-ethyl-4-oxo-3-azabicyclo[3.1.0]hexan-2-yl)methoxy)-7-methoxyisoquinoline-6-carboxamide]: the IC50 worked out at 4050 nM.

`COc1cc2c(OC[C@H]3NC(=O)[C@@H]4C(CCF)C43)nccc2cc1C(N)=O` (stereo in doubt) [Example 306, 1-(((1R,2S,5R,6R)-6-(2-fluoroethyl)-4-oxo-3-azabicyclo[3.1.0]hexan-2-yl)methoxy)-7-methoxyisoquinoline-6-carboxamide]: the IC50 is 4060 nM.
